{
  "source": "patent US20230146455A1",
  "about": "“TREATMENT OF INFLAMMATORY DISEASES WITH PEPTIDES AND PHARMACEUTICAL COMPOSITIONS” (Yuyu Pharma, Inc., priority 2020, published 2023)",
  "test_system": "human PBMCs",
  "test": "PBMC cell counts (total, live, viability; trypan blue, Countess) with and without LPS and test articles (Example 9)",
  "assay_type": "cell-based",
  "procedure": "Treatment Human PBMCs were pretreated with YY-101, YDE-011 and YDE-043 or reference compound; Xiidra® at various concentration (ranging from 1 nM to 100 uM) for 2 h before stimulation. An equal volume of 0.5% DMSO was used as a vehicle control. Then, the cells were treated with LPS at 5 ug/ml. The supernatants from treated cells were harvested at 24 h and placed in a 96 well for Luminex cytokine & chemokine profiling using a Luminex 200 multiplex assay (Luminex; R&D system, USA).\nThe main study arm with triplicate wells per group in a 24-well plate: • 1. Blank • 2. PBMC: 0.5% DMSO • 3. PBMC+LPS (5 ug/ml) • 4. PBMC+YY-101 100 uM • 5. PBMC+YY-101 10 uM • 6. PBMC+YY-101 1 uM • 7. PBMC+YY-101 0.1 uM • 8. PBMC+YY-101 0.01 uM • 9. PBMC+LPS (5 ug/ml)+Xiidra®100 uM • 10. PBMC+LPS (5 ug/ml)+Xiidra® 10 uM • 11. PBMC+LPS (5 ug/ml)+Xiidra® 1 uM • 12. PBMC+LPS (5 ug/ml)+Xiidra®0.1 uM • 13. PBMC+LPS (5 ug/ml)+Xiidra®0.01 uM • 14. PBMC+LPS (5 ug/ml)+Xiidra®0.001 uM • 15. PBMC+LPS (5 ug/ml)+YY-101 100 uM • 16. PBMC+LPS (5 ug/ml)+YY-101 10 uM • 17. PBMC+LPS (5 ug/ml)+YY-101 1 uM • 18. PBMC+LPS (5 ug/ml)+YY-101 0.1 uM • 19. PBMC+LPS (5 ug/ml)+YY-101 0.01 uM • 20. PBMC+LPS (5 ug/ml)+YY-101 0.001 uM • 21. PBMC+LPS (5 ug/ml)+YDE-011 100 uM • 22. PBMC+LPS (5 ug/ml)+YDE-011 10 uM • 23. PBMC+LPS (5 ug/ml)+YDE-011 1 uM • 24. PBMC+LPS (5 ug/ml)+YDE-011 0.1 uM • 25. PBMC+LPS (5 ug/ml)+YDE-011 0.01 uM • 26. PBMC+LPS (5 ug/ml)+YDE-011 0.001 uM • 27. PBMC+LPS (5 ug/ml)+YDE-043 100 uM • 28. PBMC+LPS (5 ug/ml)+YDE-043 10 uM • 29. PBMC+LPS (5 ug/ml)+YDE-043 1 uM • 30. PBMC+LPS (5 ug/ml)+YDE-043 0.1 uM • 31. PBMC+LPS (5 ug/ml)+YDE-043 0.01 uM • 32. PBMC+LPS (5 ug/ml)+YDE-043 0.001 uM\nThe number of PBMCs was measured after 24 hr of treatment. The culture both and trypan blue were diluted 1:1 and 10 ul was added to Countess cell counting chamber (Thermo fisher, USA). The number of PBMCs was measured using a Countess automated cell counter (Thermo fisher, USA).",
  "key": {"[1]": {"conditions": "PBMC + LPS(5 ug/ml) + test article 100 uM, Mean"}, "[2]": {"conditions": "PBMC + LPS(5 ug/ml) + test article 100 uM, single replicates"}, "[3]": {"conditions": "PBMC + LPS(5 ug/ml), test article 0.001 uM, Mean"}, "[4]": {"conditions": "PBMC + LPS(5 ug/ml), test article 0.001 uM, single replicates"}, "[5]": {"conditions": "PBMC + LPS(5 ug/ml), test article 0.01 uM, Mean"}, "[6]": {"conditions": "PBMC + LPS(5 ug/ml), test article 0.01 uM, single replicates"}, "[7]": {"conditions": "PBMC + LPS(5 ug/ml), test article 0.1 uM, Mean"}, "[8]": {"conditions": "PBMC + LPS(5 ug/ml), test article 0.1 uM, single replicates"}, "[9]": {"conditions": "PBMC + LPS(5 ug/ml), test article 1 uM, Mean"}, "[10]": {"conditions": "PBMC + LPS(5 ug/ml), test article 1 uM, single replicates"}, "[11]": {"conditions": "PBMC + LPS(5 ug/ml), test article 10 uM, Mean"}, "[12]": {"conditions": "PBMC + LPS(5 ug/ml), test article 10 uM, single replicates"}, "[13]": {"conditions": "PBMC + LPS(5 ug/ml), test article 100 uM, Mean"}, "[14]": {"conditions": "PBMC + LPS(5 ug/ml), test article 100 uM, single replicates"}},
  "note": "Several values for one entry are separate records, joined by “and”; a condition that tells them apart may be missing. Identical values can stand only once. Where a SMILES comes first, the peptide text is derived from it. [ ]: non-standard residue; d: D form. Hyp = O=C(O)[C@@H]1C[C@@H](O)CN1",
  "data": [
    {"smiles": "CC(C)C[C@H](NC(=O)[C@H](CCC(N)=O)NC(=O)CNC(=O)[C@@H]1C[C@@H](O)CN1)C(=O)NCC(=O)O", "note": "[YDE-043] (H-[Hyp]GQLG-OH; N-terminus and C-terminus assumed)", "values": [
      {"measurement": "Live cell", "setting": "PBMC + LPS(5 ug/ml) + test article 10 uM, single replicates (1st, 2nd, 3rd)", "value": "5.2 10^5/ml and 5.4 10^5/ml and 5.6 10^5/ml"},
      {"measurement": "Live cell", "setting": "[1]", "value": "6.3 10^5/ml"},
      {"measurement": "Live cell (10^5/ml)", "setting": "[1]", "value": "6.3 10^5/ml"},
      {"measurement": "Live cell, Mean", "setting": "[1]", "value": "6.3 10^5/ml"},
      {"measurement": "Live cell", "setting": "PBMC + LPS(5 ug/ml) + test article 100 uM, individual replicates", "value": "6.2 10^5/ml and 6.4 10^5/ml"},
      {"measurement": "Live cell", "setting": "PBMC + LPS(5 ug/ml) + test article 100 uM, individual replicates (1st, 2nd, 3rd)", "value": "6.2 10^5/ml and 6.4 10^5/ml"},
      {"measurement": "Live cell", "setting": "[2]", "value": "6.2 10^5/ml and 6.4 10^5/ml"},
      {"measurement": "Live cell (10^5/ml)", "setting": "[2]", "value": "6.2 10^5/ml and 6.4 10^5/ml"},
      {"measurement": "Live cell", "setting": "PBMC + LPS(5 ug/ml) + test article 100 uM, single replicates (1st, 2nd, 3rd)", "value": "6.2 10^5/ml and 6.4 10^5/ml"},
      {"measurement": "Live cell", "setting": "PBMC + LPS(5 ug/ml), 0.001 uM, Mean", "value": "5.0 10^5/ml"},
      {"measurement": "Live cell", "setting": "PBMC + LPS(5 ug/ml), 0.001 uM, single replicates", "value": "4.4 10^5/ml and 6.0 10^5/ml and 4.6 10^5/ml"},
      {"measurement": "Live cell", "setting": "PBMC + LPS(5 ug/ml), 0.01 uM, Mean", "value": "5.4 10^5/ml"},
      {"measurement": "Live cell", "setting": "PBMC + LPS(5 ug/ml), 0.01 uM, single replicates", "value": "4.5 10^5/ml and 6.6 10^5/ml and 5.0 10^5/ml"},
      {"measurement": "Live cell", "setting": "PBMC + LPS(5 ug/ml), 0.1 uM, Mean", "value": "5.4 10^5/ml"},
      {"measurement": "Live cell", "setting": "PBMC + LPS(5 ug/ml), 0.1 uM, single replicates", "value": "5.0 10^5/ml and 5.6 10^5/ml (2×)"},
      {"measurement": "Live cell", "setting": "PBMC + LPS(5 ug/ml), 1 uM, Mean", "value": "5.3 10^5/ml"},
      {"measurement": "Live cell", "setting": "PBMC + LPS(5 ug/ml), 1 uM, single replicates", "value": "5.8 10^5/ml and 4.8 10^5/ml and 5.3 10^5/ml"},
      {"measurement": "Live cell", "setting": "PBMC + LPS(5 ug/ml), 10 uM, Mean", "value": "5.4 10^5/ml"},
      {"measurement": "Live cell", "setting": "PBMC + LPS(5 ug/ml), 10 uM, single replicates", "value": "5.2 10^5/ml and 5.4 10^5/ml and 5.6 10^5/ml"},
      {"measurement": "Live cell", "setting": "PBMC + LPS(5 ug/ml), 100 uM, Mean", "value": "6.3 10^5/ml"},
      {"measurement": "Live cell", "setting": "PBMC + LPS(5 ug/ml), 100 uM, single replicates", "value": "6.2 10^5/ml and 6.4 10^5/ml"},
      {"measurement": "Live cell", "setting": "[3]", "value": "5.0 10^5/ml"},
      {"measurement": "Total cell count", "setting": "[3]", "value": "6.3 10^5/ml"},
      {"measurement": "Live cell", "setting": "[4]", "value": "4.4 10^5/ml and 6.0 10^5/ml and 4.6 10^5/ml"},
      {"measurement": "Total cell count", "setting": "[4]", "value": "5.6 10^5/ml (2×) and 7.8 10^5/ml"},
      {"measurement": "Viability", "setting": "[4]", "value": "79.0% and 77.0% and 82.0%"},
      {"measurement": "Live cell", "setting": "[5]", "value": "5.4 10^5/ml"},
      {"measurement": "Total cell count", "setting": "[5]", "value": "6.9 10^5/ml"},
      {"measurement": "Live cell", "setting": "[6]", "value": "4.5 10^5/ml and 6.6 10^5/ml and 5.0 10^5/ml"},
      {"measurement": "Total cell count", "setting": "[6]", "value": "6.2 10^5/ml and 7.3 10^5/ml and 7.2 10^5/ml"},
      {"measurement": "Live cell", "setting": "[7]", "value": "5.4 10^5/ml"},
      {"measurement": "Total cell count", "setting": "[7]", "value": "6.6 10^5/ml"},
      {"measurement": "Live cell", "setting": "[8]", "value": "5.0 10^5/ml and 5.6 10^5/ml"},
      {"measurement": "Total cell count", "setting": "[8]", "value": "6.8 10^5/ml and 6.4 10^5/ml and 6.5 10^5/ml"},
      {"measurement": "Viability", "setting": "[8]", "value": "74.0% and 87.0% and 85.0%"},
      {"measurement": "Live cell", "setting": "[9]", "value": "5.3 10^5/ml"},
      {"measurement": "Total cell count", "setting": "[9]", "value": "6.8 10^5/ml"},
      {"measurement": "Live cell", "setting": "[10]", "value": "5.8 10^5/ml and 4.8 10^5/ml and 5.3 10^5/ml"},
      {"measurement": "Total cell count", "setting": "[10]", "value": "6.9 10^5/ml and 5.7 10^5/ml and 7.8 10^5/ml"},
      {"measurement": "Viability", "setting": "[10]", "value": "83.0% (2×) and 68.0%"},
      {"measurement": "Live cell", "setting": "[11]", "value": "5.4 10^5/ml"},
      {"measurement": "Total cell count", "setting": "[11]", "value": "6.4 10^5/ml"},
      {"measurement": "Live cell", "setting": "[12]", "value": "5.2 10^5/ml and 5.4 10^5/ml and 5.6 10^5/ml"},
      {"measurement": "Total cell count", "setting": "[12]", "value": "6.4 10^5/ml and 6.7 10^5/ml and 6.2 10^5/ml"},
      {"measurement": "Viability", "setting": "[12]", "value": "80.0% (2×) and 90.0%"},
      {"measurement": "Live cell", "setting": "[13]", "value": "6.3 10^5/ml"},
      {"measurement": "Total cell count", "setting": "[13]", "value": "7.6 10^5/ml"},
      {"measurement": "Live cell", "setting": "[14]", "value": "6.2 10^5/ml and 6.4 10^5/ml"},
      {"measurement": "Total cell count", "setting": "[14]", "value": "7.0 10^5/ml and 8.1 10^5/ml"},
      {"measurement": "Viability", "setting": "[14]", "value": "89.0% and 80.0%"},
      {"measurement": "which treatments consistently affected the total and live number of PBMCs or the percent viability (in words)", "setting": "up to 100 μM, 24-hour treatment", "value": "none of"}
    ]}
  ]
}
